Data: patent publication US8580301B2, “Psychostimulant containing pharmaceutical composition” (PEJO Iserlohn Heilmittel und Diaet GmbH & Co. KG, priority 2004, dated 2013)
Structures can show the parent of a compound that is named as a salt.

How the values were obtained:
[1] = Stability in alkaline solution; type: physicochemical
[2] = Solubility of methylphenidate hydrochloride in aqueous media / Ph. Eur. buffer solutions; type: physicochemical

In the case of `COC(=O)C(c1ccccc1)C1CCCCN1` (stereo not drawn) [methylphenidate hydrochloride], the “stability in alkaline solution” value [1] is reported as “hydrolysis occurs”, the “solubility of the maximum daily dose of 60 mg in buffer solutions of the European Pharmacopoeia” value ([2]; 60 mg in 250 ml hydrochloric acid pH 1.2, or 250 ml potassium dihydrogen phosphate buffer pH 4.6 or 6.8) is reported as “dissolves easily” and the water solubility ([2]; aqueous media) is reported as “extremely water soluble”.
